Key:
[1] = target: T1, SIRT1 (Homo sapiens, UniProt Q96EB6); test: Mass spectrometry based assay to identify modulators of SIRT1 activity (deacetylation of p53-based acetylated peptide substrate); format: biochemical; settings: SIRT1 activation; for Emax: 25 min, read-out: % FOLD ACT. (percent maximum fold activation)
T1 sequence (Q96EB6 1-747): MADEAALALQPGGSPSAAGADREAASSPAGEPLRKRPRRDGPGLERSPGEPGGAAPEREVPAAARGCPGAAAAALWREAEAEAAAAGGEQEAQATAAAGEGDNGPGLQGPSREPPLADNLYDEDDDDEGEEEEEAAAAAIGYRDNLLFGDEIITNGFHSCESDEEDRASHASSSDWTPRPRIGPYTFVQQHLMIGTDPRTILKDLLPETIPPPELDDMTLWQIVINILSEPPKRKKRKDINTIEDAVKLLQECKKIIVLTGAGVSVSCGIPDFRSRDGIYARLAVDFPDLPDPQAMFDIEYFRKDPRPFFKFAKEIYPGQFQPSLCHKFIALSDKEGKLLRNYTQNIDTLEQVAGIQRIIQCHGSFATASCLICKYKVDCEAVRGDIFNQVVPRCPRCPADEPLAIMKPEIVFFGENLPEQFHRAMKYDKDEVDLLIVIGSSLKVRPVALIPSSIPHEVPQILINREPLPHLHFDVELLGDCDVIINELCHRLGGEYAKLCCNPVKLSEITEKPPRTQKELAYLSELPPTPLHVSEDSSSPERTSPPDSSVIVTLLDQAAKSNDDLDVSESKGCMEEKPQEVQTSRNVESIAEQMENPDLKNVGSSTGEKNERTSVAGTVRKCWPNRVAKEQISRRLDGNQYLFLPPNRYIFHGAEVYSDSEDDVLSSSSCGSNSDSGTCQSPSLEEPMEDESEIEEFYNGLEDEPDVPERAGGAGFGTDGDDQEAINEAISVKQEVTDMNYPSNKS
Procedure, shortened: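 His-tagged human SIRT1 (10 nM, E. coli) incubated 25 min at 25 °C with […] p53-derived acetylated 5TMR peptide and 120 μM βNAD+ in pH 8 Tris-acetate buffer, then formic acid-stopped. Mass spectrometry quantifies acetylated vs deacetylated peptide; nicotinamide and DMSO controls.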

[2] = tested on: TNF; test: TNF IC50 (column of Table 1; method not shown); format: cell-based

Compound	Emax [1] [%]	EC1.5 [1]	IC50 [2] [µM]
CN1CCN(C(=O)Nc2cccnn2)c2nc(-c3cccc(C(F)(F)F)c3)ccc21 [Compound 537]	> 200	A (EC1.5<1.0 μM)	≥ 20
CN1CCN(C(=O)Nc2ccnc(N3CCC3)c2)c2nc(-c3cccc(C(F)(F)F)c3)ccc21 [Compound 538]	> 200	A (EC1.5<1.0 μM)	< 20
CN1CCN(C(=O)Nc2cccc(CN3CCOCC3)n2)c2nc(-c3cccc(C(F)(F)F)c3)ccc21 [Compound 539]	> 200	A (EC1.5<1.0 μM)	< 20
O=C(Nc1ccncc1F)N1CCOc2ccc(-c3cccc(C(F)(F)F)c3)nc21 [Compound 549]	> 200	A (EC1.5<1.0 μM)	≥ 20
Cc1cncc(NC(=O)N2CCOc3ccc(-c4cccc(C(F)(F)F)c4)nc32)c1 [Compound 551]	> 200	A (EC1.5<1.0 μM)	≥ 20
Cc1cc(NC(=O)N2CCOc3ccc(-c4cccc(C(F)(F)F)c4)nc32)cc(C)n1 [Compound 556]	> 200	A (EC1.5<1.0 μM)	< 20
O=C(Nc1ccncc1)N1CCOc2ccc(-c3cccc(N4CCOCC4)c3)nc21 [Compound 557]	> 200	A (EC1.5<1.0 μM)	≥ 20
O=C(Nc1ccncc1)N1CCOc2ccc(-c3cccc(N4CCCC4)c3)nc21 [Compound 559]	> 200	A (EC1.5<1.0 μM)	< 20
CC1(C)CN(C(=O)Nc2ccncc2)c2nc(-c3cccc(C(F)(F)F)c3)ccc2O1 [Compound 560, 2,2-dimethyl-N-(pyridin-4-yl)-6-(3-(trifluoromethyl)phenyl)-2H-pyrido[3,2-b][1,4]oxazine-4(3H)-carboxamide]	> 200	A (EC1.5<1.0 μM)	≥ 20
O=C(Nc1ccc(F)cn1)N1CCOc2ccc(-c3cccc(C(F)(F)F)c3)nc21 [Compound 566]	> 200	A (EC1.5<1.0 μM)	≥ 20
O=C(Nc1cccc(OC[C@H](O)CO)n1)N1CCOc2ccc(-c3cccc(C(F)(F)F)c3)nc21 [Compound 570, (R)—N-(6-(2,3-dihydroxypropoxy)pyridin-2-yl)-6-(3-(trifluoromethyl)phenyl)-2H-pyrido[3,2-b][1,4]oxazine-4(3H)-carboxamide]	> 200	A (EC1.5<1.0 μM)	< 20
O=C(Nc1cccc(OC[C@@H](O)CO)n1)N1CCOc2ccc(-c3cccc(C(F)(F)F)c3)nc21 [Compound 571]	> 200	A (EC1.5<1.0 μM)	< 20
Cc1cc(NC(=O)N2CCCc3ccc(-c4cccc(C(F)(F)F)c4)nc32)cc(C)n1 [Compound 587]	> 200	A (EC1.5<1.0 μM)	< 20
Cc1cncc(NC(=O)N2CC(C)(C)Oc3ccc(-c4cccc(F)c4)nc32)c1 [Compound 591]	> 200	A (EC1.5<1.0 μM)	< 20
Cc1cc(NC(=O)N2CC(C)(C)Oc3ccc(-c4cccc(F)c4)nc32)cc(C)n1 [Compound 592]	> 200	A (EC1.5<1.0 μM)	≥ 20
Cc1cncc(NC(=O)N2CC(C)(C)Oc3ccc(-c4cccc(N(C)C)c4)nc32)c1 [Compound 593]	> 200	A (EC1.5<1.0 μM)	≥ 20
O=C(Nc1cncc(F)c1)N1CCCc2ccc(-c3cccc(F)c3)nc21 [Compound 594]		A (EC1.5<1.0 μM)	≥ 20
O=C(Nc1ccnc(N2CCC2)c1)N1CCCc2ccc(-c3cccc(F)c3)nc21 [Compound 596]	> 200	A (EC1.5<1.0 μM)	< 20
Cc1cc(NC(=O)N2CC(C)(C)Oc3ccc(-c4cccc(N(C)C)c4)nc32)cc(C)n1 [Compound 597]	> 200	A (EC1.5<1.0 μM)	< 20
Cc1cncc(NC(=O)N2CCCOc3ccc(-c4cccc(Cl)c4)nc32)c1 [Compound 598]	> 200	A (EC1.5<1.0 μM)	< 20
Cc1cncc(NC(=O)N2CCCc3ccc(-c4cccc(Cl)c4)nc32)c1 [Compound 599]	> 200	A (EC1.5<1.0 μM)	≥ 20
Cc1cncc(NC(=O)N2CC(C)(C)Oc3ccc(-c4cccc(Cl)c4)nc32)c1 [Compound 600]	> 200	A (EC1.5<1.0 μM)	< 20
Cc1cc(NC(=O)N2CC(C)(C)Oc3ccc(-c4cccc(N5CCCC5)c4)nc32)cc(C)n1 [Compound 605]	> 200	A (EC1.5<1.0 μM)	≥ 20
Cc1csc(NC(=O)N2CC(C)(C)Oc3ccc(-c4cccc(N5CCCC5)c4)nc32)n1 [Compound 606]	≤ 200	A (EC1.5<1.0 μM)	≥ 20

Further lines, results first:

Emax [1] [%]	EC1.5 [1]	IC50 [2] [µM]	Compound
> 200	A (EC1.5<1.0 μM)	≥ 20	Cc1cc(NC(=O)N2CCOc3ccc(-c4cccc(C(F)(F)F)c4)nc32)ccn1 [Compound 548]
> 200	A (EC1.5<1.0 μM)	≥ 20	Cc1cc(NC(=O)N2CCOc3ccc(-c4ccc5c(c4)CCO5)nc32)cc(C)n1 [Compound 574]
> 200	A (EC1.5<1.0 μM)	≥ 20	Cc1csc(NC(=O)N2CCCOc3ccc(-c4cccc(C(F)(F)F)c4)nc32)n1 [Compound 578]
> 200	A (EC1.5<1.0 μM)	< 20	Cc1cncc(NC(=O)N2CCCc3ccc(-c4cccc(C(F)(F)F)c4)nc32)c1 [Compound 585, N-(5-methylpyridin-3-yl)-7-(3-(trifluoromethyl)phenyl)-3,4-dihydro-1,8-naphthyridine-1(2H)-carboxamide]
> 200	A (EC1.5<1.0 μM)	< 20	O=C(Nc1cncc(F)c1)N1CCCc2ccc(-c3cccc(C(F)(F)F)c3)nc21 [Compound 586]
> 200	A (EC1.5<1.0 μM)	≥ 20	Cc1csc(NC(=O)N2CCCc3ccc(-c4cccc(C(F)(F)F)c4)nc32)n1 [Compound 588]
> 200	A (EC1.5<1.0 μM)	< 20	O=C(Nc1ccnc(N2CCC2)c1)N1CCCc2ccc(-c3cccc(C(F)(F)F)c3)nc21 [Compound 589]
> 200	A (EC1.5<1.0 μM)	< 20	Cc1cncc(NC(=O)N2CCCc3ccc(-c4cccc(F)c4)nc32)c1 [Compound 590]
> 200	A (EC1.5<1.0 μM)	< 20	Cc1cc(NC(=O)N2CCCc3ccc(-c4cccc(F)c4)nc32)cc(C)n1 [Compound 595]
> 200	A (EC1.5<1.0 μM)	≥ 20	Cc1cc(NC(=O)N2CC(C)(C)Oc3ccc(-c4cccc(Cl)c4)nc32)cc(C)n1 [Compound 602]
> 200	A (EC1.5<1.0 μM)	≥ 20	Cc1cncc(NC(=O)N2CC(C)(C)Oc3ccc(-c4cccc(N5CCCC5)c4)nc32)c1 [Compound 603]
> 200	A (EC1.5<1.0 μM)	≥ 20	CC1(C)CN(C(=O)Nc2cncc(F)c2)c2nc(-c3cccc(N4CCCC4)c3)ccc2O1 [Compound 604]
